Measured values from ChEMBL document CHEMBL3046670, “Synthesis of Esters, Amides, N-Alkylamides and N, N-Dialkylamides of 2, 3-Dimethyl-5-(2, 5-disubstituted phenylaminocarbonyl)-6-pyrazinecarboxylic Acid and Their Phytotoxicity” (1992).
The source made the active and inactive calls. No cut-off for these calls is given here.

The compounds below were run on Lactuca sativa (assay: Inhibition of Lactuca sativa longifolia Lams (lettuce) seed germination at 100 ppm after 5 days relative to control). Settings: not given.
Assay type: functional
In the case of `CCCCCOC(=O)c1nc(C)c(C)nc1C(=O)Nc1cc(C)ccc1C`, the inhibition was “inactive”.
In the case of `CCCCN(CCCC)C(=O)c1nc(C)c(C)nc1C(=O)Nc1cc(C)ccc1C`, the inhibition was “inactive”.
In the case of `CCCCCN(CCCCC)C(=O)c1nc(C)c(C)nc1C(=O)Nc1cc(C)ccc1C`, the inhibition was “inactive”.
For `CCN(CC)C(=O)c1nc(C)c(C)nc1C(=O)Nc1cc(C)ccc1C`, the inhibition was “inactive”.

Same assay, conditions: 120 h
`CCCC(C)OC(=O)c1nc(C)c(C)nc1C(=O)Nc1cc(C)ccc1C` (stereo not given) was tested, and the inhibition at 100 ppm was 44%.
Compound `CCC(C)OC(=O)c1nc(C)c(C)nc1C(=O)Nc1cc(C)ccc1C` (stereo not given) has an inhibition at 100 ppm of 32%.

These compounds were tested on Eleusine indica (assay: Inhibition of Eleusine indica germination at 300 ppm after 5 days relative to control). Settings: not given.
Assay type: functional
`CCCCCOC(=O)c1nc(C)c(C)nc1C(=O)Nc1cc(C)ccc1C` was tested, and the inhibition was “inactive”.
With `CCCCN(CCCC)C(=O)c1nc(C)c(C)nc1C(=O)Nc1cc(C)ccc1C` the inhibition was “inactive”.
For `CCCCCN(CCCCC)C(=O)c1nc(C)c(C)nc1C(=O)Nc1cc(C)ccc1C`, the inhibition was “inactive”.
With `CCN(CC)C(=O)c1nc(C)c(C)nc1C(=O)Nc1cc(C)ccc1C` the inhibition was “inactive”.

Same assay, conditions: 120 h
Work on `CCCC(C)OC(=O)c1nc(C)c(C)nc1C(=O)Nc1cc(C)ccc1C` (stereo not given) yielded an inhibition at 300 ppm of 33%.
With `CCC(C)OC(=O)c1nc(C)c(C)nc1C(=O)Nc1cc(C)ccc1C` (stereo not given) the inhibition at 300 ppm was 15%.

Each compound was assayed on Eleusine indica (assay: Inhibition of Eleusine indica seed germination at 50 ppm after 5 days relative to control). Settings: not given.
Assay type: functional
In the case of `CCCC(C)OC(=O)c1nc(C)c(C)nc1C(=O)Nc1cc(C)ccc1C` (stereo not given), the inhibition was “inactive”.
With `CCCCCOC(=O)c1nc(C)c(C)nc1C(=O)Nc1cc(C)ccc1C` the inhibition was “inactive”.
`CCCCN(CCCC)C(=O)c1nc(C)c(C)nc1C(=O)Nc1cc(C)ccc1C` was tested, and the inhibition was “inactive”.
In the case of `CCCCCN(CCCCC)C(=O)c1nc(C)c(C)nc1C(=O)Nc1cc(C)ccc1C`, the inhibition was “inactive”.
With `CCN(CC)C(=O)c1nc(C)c(C)nc1C(=O)Nc1cc(C)ccc1C` the inhibition was “inactive”.

The compounds below were run on Lactuca sativa (assay: Inhibition of Lactuca sativa longifolia Lams (lettuce) seed germination at 50 ppm after 5 days relative to control). Settings: not given.
Assay type: functional
In the case of `CCCC(C)OC(=O)c1nc(C)c(C)nc1C(=O)Nc1cc(C)ccc1C` (stereo not given), the inhibition was “inactive”.
For `CCCCCOC(=O)c1nc(C)c(C)nc1C(=O)Nc1cc(C)ccc1C`, the inhibition was “inactive”.
`CCCCN(CCCC)C(=O)c1nc(C)c(C)nc1C(=O)Nc1cc(C)ccc1C` was tested, and the inhibition was “inactive”.
In the case of `CCCCCN(CCCCC)C(=O)c1nc(C)c(C)nc1C(=O)Nc1cc(C)ccc1C`, the inhibition was “inactive”.
`CCN(CC)C(=O)c1nc(C)c(C)nc1C(=O)Nc1cc(C)ccc1C` was tested, and the inhibition was “inactive”.

These compounds were tested on Eleusine indica (assay: Inhibition of Eleusine indica seed germination at 100 ppm after 5 days relative to control). Settings: not given.
Assay type: functional
`CCOC(=O)c1nc(C)c(C)nc1C(=O)Nc1cc(Cl)ccc1Cl` was tested, and the inhibition was “inactive”.
`COC(=O)c1nc(C)c(C)nc1C(=O)Nc1cc(Cl)ccc1Cl` was tested, and the inhibition was “inactive”.
`CCCCCOC(=O)c1nc(C)c(C)nc1C(=O)Nc1cc(C)ccc1C` was tested, and the inhibition was “inactive”.
In the case of `CCCCN(CCCC)C(=O)c1nc(C)c(C)nc1C(=O)Nc1cc(C)ccc1C`, the inhibition was “inactive”.
In the case of `Cc1nc(C(=O)Nc2cc(Cl)ccc2Cl)c(C(=O)OC(C)C)nc1C`, the inhibition was “inactive”.
For `CCCCCN(CCCCC)C(=O)c1nc(C)c(C)nc1C(=O)Nc1cc(C)ccc1C`, the inhibition was “inactive”.
`CCCOC(=O)c1nc(C)c(C)nc1C(=O)Nc1cc(Cl)ccc1Cl` was tested, and the inhibition was “inactive”.
With `CCN(CC)C(=O)c1nc(C)c(C)nc1C(=O)Nc1cc(C)ccc1C` the inhibition was “inactive”.

Same assay, conditions: 120 h
In the case of `Cc1ccc(C)c(NC(=O)c2nc(C)c(C)nc2C(N)=O)c1`, the inhibition at 100 ppm was 20%.
In the case of `CCCC(C)OC(=O)c1nc(C)c(C)nc1C(=O)Nc1cc(C)ccc1C` (stereo not given), the inhibition at 100 ppm was 32%.
`Cc1ccc(C)c(NC(=O)c2nc(C)c(C)nc2C(=O)OC(C)C)c1` gave an inhibition at 100 ppm of 20%.
`CCC(C)OC(=O)c1nc(C)c(C)nc1C(=O)Nc1cc(C)ccc1C` (stereo not given) was tested, and the inhibition at 100 ppm was 13%.

What follows are compounds tested on Lactuca sativa (assay: Inhibition of Lactuca sativa longifolia Lams (lettuce) seed germination at 300 ppm after 5 days relative to control). Settings: not given.
Assay type: functional
In the case of `CCCCCOC(=O)c1nc(C)c(C)nc1C(=O)Nc1cc(C)ccc1C`, the inhibition was “inactive”.
With `CCCCN(CCCC)C(=O)c1nc(C)c(C)nc1C(=O)Nc1cc(C)ccc1C` the inhibition was “inactive”.
With `CCCCCN(CCCCC)C(=O)c1nc(C)c(C)nc1C(=O)Nc1cc(C)ccc1C` the inhibition was “inactive”.
For `CCN(CC)C(=O)c1nc(C)c(C)nc1C(=O)Nc1cc(C)ccc1C`, the inhibition was “inactive”.

Same assay, conditions: 120 h
For `CCCC(C)OC(=O)c1nc(C)c(C)nc1C(=O)Nc1cc(C)ccc1C` (stereo not given), the inhibition at 300 ppm was 50%.
`CCC(C)OC(=O)c1nc(C)c(C)nc1C(=O)Nc1cc(C)ccc1C` (stereo not given) gave an inhibition at 300 ppm of 36%.
